Experimental data as given in US9546157B2, “Asymmetric piperidinyl-substituted ureas as medicines” (Helsinn Healthcare SA, priority 2014, dated 2017).
“Also recorded” adds a separate entry of the source.

Columns and labels:
C57BL/6J mice = experiment: Food intake test in mouse (GHSR1a antagonists); type: in vivo; settings: for inhibition in vivo at 30 mg/kg / inhibition in vivo at 10 mg/kg: Mus musculus, po
Outline: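 Male C57BL/6J mice (18-22 g) were fasted overnight (16 h before dosing), then randomized by body weight to vehicle or test agent (n=6 each). Cumulative food intake was measured at 1, 2, 4, 8 and 24 hrs post-dose as premeasured food minus uneaten food.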

[1] = tested on: Marchigian Sardinian alcohol-preferring (msP) rats; experiment: Operant ethanol self-administration in msP rats; type: in vivo, rat; settings: for operant responding for alcohol (10% ethanol self-administration), overall: oral 1 h before 30-min session, all doses tested (H0847 1, 3; H0816 3, 10; H0900 and H0860 3, 30 mg/kg)
Protocol: Training continued until stable baseline of alcohol responding was achieved. At this point, before initiation of treatments, rats were trained to gavage administration procedures for three consecutive days (pre-treatment phase) during which they received drug vehicle. At this point animals were tested for the effect of ghrelin antagonists on 10% (v/v) ethanol self-administration. Using a within-subject Latin square design, the first group of msP rats (N=12) was tested for the effect of H0847 (0.0, 1.0 and 3.0 mg/kg), while the second (N=12) was treated with H0816 (0.0, 3.0 and 10.0 mg/kg).
Once the experiment was finished, animals were left in their home cages for several days, in order to wash out the drugs. Then, the same rats were employed to test the remaining ghrelin antagonists compounds H0900 (0.0, 3.0 and 30.0 mg/kg) and H0860 (0.0, 3.0 and 30.0 mg/kg). Once a stable self-administration baseline was reached, treatments begun according to the same experimental procedures described for the previous drugs tested.
All the drugs (or vehicles) were administered orally 1 hour before the beginning of the operant session.
Male genetically selected alcohol-preferring Marchigian Sardinian (msP) rats were used (N=24). At the time of the experiments their body weight ranged between 350 and 400 g. They were housed 4 per cages in a room with a reverse 12:12 h light/dark cycle (lights off at 9:30 a.m.), temperature of 20-22° C. and humidity of 45-55%. Rats were offered free access to tap water and food pellets (4RF18, Mucedola, Settimo Milanese, Italy). All the procedures were conducted in adherence with the European Community Council Directive for Care and Use of Laboratory Animals and the National Institutes of Health Guide for the Care and Use of Laboratory Animals.
75 mg of each H0900 and H0860 were accurately weighed and suspended in 10 ml of 0.5% carboxymethyl cellulose sodium salt solution (CMC, Sigma-Aldrich Cat. C4888, lot 120M0216V). The lower dose solution was prepared by dilution of 30 mg/ml suspension with 0.5% CMC solution.
37.5 mg of H0816 were accurately weighed and suspended in 15 ml of 0.5% carboxymethyl cellulose sodium salt solution (CMC, Sigma-Aldrich Cat. C4888, lot 120M0216V). The lower dose solution was prepared by dilution of mg/ml suspension with 0.5% CMC solution.
11.25 mg of H0847 were accurately weighed and suspended in 15 ml of 0.5% carboxymethyl cellulose sodium salt solution (CMC, Sigma-Aldrich Cat. C4888, lot 120M0216V). The lower dose solution was prepared by dilution of mg/ml suspension with 0.5% CMC solution.
Suspensions were prepared freshly on test day. Vehicle was composed of a solution of 0.5% carboxymethyl cellulose sodium salt and was prepared by dissolving 1 g of CMC in 200 ml of distilled water. Vehicle and drugs were administered by gavage in a volume of 4 ml/kg of body weight 1 hour before the access to 10% alcohol solution. 10% (v/v) ethanol solution was prepared every two days by diluting 95% (v/v) ethanol solution (F.L. CARSETTI s.n.c-CAMERINO) in drinkable water.
The self-administration stations consisted of operant conditioning chambers (Med Associate, Inc) enclosed in sound-attenuating, ventilated environmental cubicles. Each chamber was equipped with a drinking reservoir (volume capacity: […]) positioned 4 cm above the grid floor in the centre of the front panel of the chamber, two retractable levers located 3 cm (one to the right and the other to the left) of the drinking receptacle and a white cue light located 6 cm above the lever. […] An IBM-compatible computer controlled the delivery of fluids (activation of syringe pump), presentation of visual stimuli and recording of the behavioral data.
Using operant self-administration chambers (Med Associates), msP rats were trained to lever press for 10% alcohol (v/v) until stable baseline of responding were achieved. 16 self-administration training sessions were carried out to train the animals. […]

GHSR1a = target: T1, GHSR1a (Homo sapiens, UniProt Q92847); experiment: Calcium FLIPR assay, GHSR-1a antagonism (reduction of ghrelin response); type: cell-based; settings: HEK293/GHSR1a cells, ghrelin 10 nM
T1 construct: expressed in transfected cells; host or cells: HEK293
Outline: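 Relative fluorescence read-out (FLIPR) of intracellular calcium in HEK293/GHSR1a cells. For antagonist mode, compound and 10 nM ghrelin were co-added at t=20 sec, and inhibition of the ghrelin response over 2 minutes gave IC50. Agonist mode: compound alone at t=20 sec, response tracked 2 minutes; EC50 from dose-response.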

[2] = Metabolic Stability (M = Mouse); type: in vitro ADME
[3] = Metabolic Stability (H = Human); type: in vitro ADME
[4] = 3 mg/kg oral 1 h before session
[5] = 30 mg/kg oral 1 h before session

T1 sequence (Q92847 whole entry): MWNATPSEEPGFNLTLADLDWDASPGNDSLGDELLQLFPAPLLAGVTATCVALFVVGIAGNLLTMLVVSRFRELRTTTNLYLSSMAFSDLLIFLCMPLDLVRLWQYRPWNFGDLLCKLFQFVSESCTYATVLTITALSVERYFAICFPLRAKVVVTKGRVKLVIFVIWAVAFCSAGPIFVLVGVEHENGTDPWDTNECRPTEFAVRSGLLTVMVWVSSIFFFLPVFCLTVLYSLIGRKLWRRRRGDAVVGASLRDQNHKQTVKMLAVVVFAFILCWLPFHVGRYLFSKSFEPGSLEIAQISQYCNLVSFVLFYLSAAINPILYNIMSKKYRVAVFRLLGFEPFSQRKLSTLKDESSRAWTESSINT

| IC50 (GHSR1a) [nM] | Metabolic Stability M [2] | Metabolic Stability H [3] | Compound | inhibition in vivo at 30 mg/kg (C57BL/6J mice; 30 mg/kg PO fasted mice, time not given) [%] | operant responding for alcohol (10% ethanol self-administration), overall [1] | Mouse Food Intake, result in words (C57BL/6J mice; PO 10 mg/kg + ANA (ANAM) 30 mg/kg mice) | inhibition in vivo at 10 mg/kg (C57BL/6J mice; 1 h, PO 10 mg/kg + ANA 30 mg/kg mice) [%] | alcohol self-administration, post hoc [1, 4] | alcohol self-administration, post hoc [1, 5] | inhibition in vivo at 10 mg/kg (C57BL/6J mice; 1 h, PO 10 mg/kg + ANA 30 mg/kg fed mice) [%] | inhibition in vivo at 30 mg/kg (C57BL/6J mice; 1 h, PO 30 mg/kg + ANA 30 mg/kg fed mice) [%] | inhibition in vivo at 30 mg/kg (C57BL/6J mice; 1 h, PO 30 mg/kg fasted mice) [%] | inhibition in vivo at 30 mg/kg (C57BL/6J mice; 1 h, PO 30 mg/kg fed mice) [%] |
| --- | --- | --- | --- | --- | --- | --- | --- | --- | --- | --- | --- | --- | --- |
| 5.1 |  |  | C[C@H](NC(=O)N(C)C1CCN(C)CC1)c1ccc(-c2cnccn2)c(Cl)c1Cl [Compound H0816, (S)-3-(1-(2,3-dichloro-4-(pyrazin-2-yl)phenyl)ethyl)-1-methyl-1-(1-methylpiperidin-4-yl)urea] | 12 | had no effect on operant responding for alcohol; also recorded: had no effect on ethanol responses |  |  |  |  |  |  |  |  |
| 2 | High H High M | High H High M | C[C@H](NC(=O)N(C)C1CCN(C)CC1)c1ccc(-c2cncc(F)n2)c(Cl)c1Cl [Compound H0847, (S)-3-(1-(2,3-dichloro-4-(6-fluoropyrazin-2-yl)phenyl)ethyl)-1-methyl-1-(1-methylpiperidin-4-yl)urea] |  | had no effect on operant responding for alcohol; also recorded: had no effect on ethanol responses | PO 10 mg/kg + ANA 30 mg/kg mice: NSE |  |  |  |  |  |  |  |
| 3 | High H High M | High H High M | CC[C@H](NC(=O)N(C)C1CCN(C)CC1)c1ccc(-c2cnccn2)c(Cl)c1Cl [Compound H0860, (S)-3-(1-(2,3-dichloro-4-(pyrazin-2-yl)phenyl)propyl)-1-methyl-1-(1-methylpiperidin-4-yl)urea] |  | significantly reduced operant responding for alcohol; also recorded: statistically significant decrease in ethanol self-administration |  | 68 | only the higher dose (30 mg/kg) reduced ethanol self-administration | significant reduction of alcohol self-administration |  |  |  |  |
| 3 | High | Medium | CN1CCC(N(C)C(=O)N[C@H](c2ccc(-c3cnccn3)c(Cl)c2Cl)C(F)(F)F)CC1 [Compound H0900, (R)-3-(1-(2,3-dichloro-4-(pyrazin-2-yl)phenyl)-2,2,2-trifluoroethyl)-1-methyl-1-(1-methylpiperidin-4-yl)urea] |  | significantly reduced operant responding for alcohol; also recorded: statistically significant decrease in ethanol self-administration |  |  | significant reduction of alcohol self-administration | significant reduction of alcohol self-administration | 60 | 91 | 26 | 90 |
